From ChEMBL document CHEMBL3045545, “Control of chickpea blight disease caused by Didymella rabiei by mixing resistance inducer and contact fungicide” (2011) come the findings set out here.

Activity calls are given as the source filed them. The rule behind the calls is not given here.

The inhibition is the share of the control response that was lost under treatment.

The test system of assay [1] is Ascochyta rabiei. Kind of assay: Antifungal activity against Didymella rabiei in chickpea plant assessed as dry grain yield at 50 ppm compound treated by seeds soaking for 24 hr (Control = 0.268 t/ha). Format: functional.
Assay [2] relates to Ascochyta rabiei. Description: Antifungal activity against Didymella rabiei in chickpea plant assessed as dry grain yield at 50 ppm compound single spray 15 intervals (Control = 0.268 t/ha). The class given is functional.
Assay [3] relates to Ascochyta rabiei. Kind of assay: Antifungal activity against Didymella rabiei isolate ARL1 inoculated in chickpea seedlings assessed as reduction in chickpea blight disease at 100 ppm compound treated 24 hr prior seedlings by green house experiment. The class given is functional, organism-based.
For assay [4], the system named is Ascochyta rabiei. Description: Antifungal activity against Didymella rabiei inoculated in chickpea plant assessed as reduction in chickpea blight disease at 100 ppm compound single spray 24 to 72 hr before inoculation by green house experiment. The class given is functional, organism-based.
Assay [5] relates to Ascochyta rabiei. Kind of assay: Antifungal activity against Didymella rabiei in chickpea plant assessed as chickpea blight disease severity at 50 ppm compound treated by seeds soaking for 24 hr (Control = 45.8%). The class given is functional.
In assay [6] the test system is Ascochyta rabiei. Description: Antifungal activity against Didymella rabiei in chickpea plant assessed as dry grain yield at 50 ppm compound three sprays 15 intervals (Control = 0.268 t/ha). Format: functional.
Assay [7] deals with Ascochyta rabiei. Kind of assay: Antifungal activity against Didymella rabiei in chickpea plant assessed as dry grain yield at 50 ppm compound two sprays 15 intervals (Control = 0.268 t/ha). Format: functional.
In assay [8] the test system is Ascochyta rabiei. Kind of assay: Antifungal activity against Didymella rabiei in chickpea plant assessed as chickpea blight disease severity at 50 ppm compound two sprays 15 intervals (Control = 45.8%). The class given is functional.
Assay [9] relates to Ascochyta rabiei. Kind of assay: Antifungal activity against Didymella rabiei inoculated in chickpea plant assessed as reduction in chickpea blight disease at 100 ppm compound single spray 96 or 120 hr before inoculation by green house experiment. Format: functional, organism-based.
In assay [10] the test system is Ascochyta rabiei. Kind of assay: Antifungal activity against Didymella rabiei in chickpea plant assessed as chickpea blight disease severity at 50 ppm compound single spray 15 intervals (Control = 45.8%). The class given is functional.
The test system of assay [11] is Ascochyta rabiei. Kind of assay: Antifungal activity against Didymella rabiei inoculated in chickpea plant assessed as reduction in chickpea blight disease at 100 ppm compound single spray 24 hr before inoculation by green house experiment. Format: functional.
Assay [12] has as its system Ascochyta rabiei. Description: Antifungal activity against Didymella rabiei in chickpea plant assessed as chickpea blight disease severity at 50 ppm compound three sprays 15 intervals (Control = 45.8%). Format: functional.

As for `CSC(=O)c1cccc2nnsc12` [ACIBENZOLAR-S-METHYL], the Crop_yield in the assay on Ascochyta rabiei [1] came to 0.456 tons/ha; in the assay on Ascochyta rabiei [2], 0.52 tons/ha; in the assay on Ascochyta rabiei [6] it was 0.922 tons/ha; in the assay on Ascochyta rabiei [7], 1.066 tons/ha. Moreover, the inhibition entry with Ascochyta rabiei [3] and in the assay on Ascochyta rabiei [4] was “Active” in each case. For the same compound, the Activity in the assay on Ascochyta rabiei [5] is listed as 22.5%; with Ascochyta rabiei [8], 7.5%; with Ascochyta rabiei [10], 17.5%; in the assay on Ascochyta rabiei [12], 4.2%. The inhibition result in the assay with Ascochyta rabiei [9] was “inactive”. The inhibition at 100 ppm with Ascochyta rabiei [11] was 72.4%.
